{"source": "patent US20250353827A1", "about": "“INDOLINE DERIVATIVES AS SEROTONERGIC AGENTS USEFUL FOR THE TREATMENT OF DISORDERS RELATED THERETO” (MINDSET PHARMA INC., priority 2022, published 2025)", "key": {"Male, C57BL/6J mice": {"system": "Male, C57BL/6J mice", "assay": "Mouse head twitch", "format": "in vivo", "settings": "for head twitches (mean): counted over 1 hr, male C57BL/6J mice; for other behavioural signs (locomotion, core body temperature, 5-HT syndrome) in words: psilocybin 3 and 10 mg/kg, 5-MeO DMT 3-30 mg/kg, II-1 0.3-30 mg/kg", "procedure": "The effect of different doses of representative compounds of Formula I were evaluated on head-twitch response (HTR) and other behavioural responses as behavior-based models of psychedelic activity.\nMale, C57BL/6J mice (body weight range 20-30 g) were dosed with the appropriate dose of test article, and following a 1-minute pre-treatment time, placed in individual observation chambers. Animals were visually assessed for the incidence head twitches continuously over a 1 hr period. Head twitches were defined as a rapid jerk of the head which was not elicited by an external tactile stimulus (Come and Pickering, Psychopharmacologia, 1967, 11(1): 65-78). Each head twitch was individually counted by a trained observer, and the data was expressed as the mean±SEM of 6-10 mice per group. Mice were used in a single experiment only.\nThe head twitch response of exemplary compound II-1 (1-30 mg/kg SC) was compared to 5-MeO DMT and psilocybin (FIG. 1, Table 6)."}, "[1]": {"target": "T1, human 5-HT2A (h5-HT2A) receptor (Homo sapiens, UniProt P28223)", "T1 construct": "expressed in transfected cells; cultured under G418 and hygromycin B selection", "T1 sequence (P28223 whole entry)": "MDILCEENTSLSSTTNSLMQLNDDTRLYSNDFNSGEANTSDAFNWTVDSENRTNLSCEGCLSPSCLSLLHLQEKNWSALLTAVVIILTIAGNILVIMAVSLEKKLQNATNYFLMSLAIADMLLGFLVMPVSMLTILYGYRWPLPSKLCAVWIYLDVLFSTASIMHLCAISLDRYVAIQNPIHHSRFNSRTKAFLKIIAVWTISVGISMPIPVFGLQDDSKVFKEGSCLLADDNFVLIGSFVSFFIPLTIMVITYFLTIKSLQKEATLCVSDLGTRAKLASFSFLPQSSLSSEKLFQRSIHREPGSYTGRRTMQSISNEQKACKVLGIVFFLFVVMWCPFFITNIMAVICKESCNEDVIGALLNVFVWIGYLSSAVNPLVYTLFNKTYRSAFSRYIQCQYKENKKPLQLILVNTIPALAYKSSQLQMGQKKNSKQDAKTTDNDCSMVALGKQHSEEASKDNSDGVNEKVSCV", "assay": "FLIPR assay, human 5-HT2A receptor under agonist mode", "format": "cell-based", "settings": "5-HT2A (FLIPR); for RFU@10 μM: RFU=Fmax−Fmin; for pEC50: read-out: EC50", "procedure": "I. Assessment of the Effect of Exemplary Compounds of Formula I Targeting on Human 5-HT2A (h5-HT2A) Receptor Under Agonist Mode\n• 1. Cells were cultured in cell culture medium (DMEM containing 10% FBS, 1×penicillin-streptomycin 300 μg/ml G418 and 100 μg/ml hygromycin B) at 37° C., 5% (v/v) CO2. • 2. One day before the assays, the cells were detached using TrypLE™ Express and cells were counted using cell counter. Only cells with >85% viability were used for the assay. • 3. 20000 cells/well were seeded in 30 μl/well culture medium to a 384-well cell plate and cells were incubated overnight at 37° C., 5% (v/v) CO2. • 4. On the assay day, 2×dye solution was prepared following the manual of the FLIPR® Calcium 6 Assay Kit: i. The dye was diluted with assay buffer (20 mM HEPES in 1× HBSS, PH7.4); ii. Probenecid was added to the final concentration of 5 mM; iii. Vortex vigorously for 1-2 minutes. • 5. Medium was removed from cell plate by flicking the cell plate on towel papers. • 6. 10 μl of assay buffer and 10 μl of 2×dye solution was added to each well of the cell plate. • 7. The cell plate was placed on plate shaker, the plate was agitated at 600 rpm for 2 minutes. The plate was incubated at 37° C. for 2 hours followed by additional 15-minute incubation at 25° C. • 8. 3×compound in assay buffer was prepared: a. Reference compounds were diluted to required concentration with DMSO. The compounds were added to a 384-well compound plate; b. Serial dilutions were performed; c. 10 mM test compounds were added to the compound plate, and 3-fold serial dilutions were performed. d. Transfer 60 nl/well of compounds from source plate to a 384-well compound plate (Corning, 3657) by using an Echo; e. Add 20 μl/well assay buffer to the compound plate; f. Mix the plate on plate shaker for 2 mins; • 9. The cell plate, compound plate and tips were put into FLIPR, 10 μl of 3× compound was transferred to the cell plate per well with FLIPR.\n• i. The normalized fluorescence reading (RFU) was calculated as shown below, where Fmax and Fmin stand for maximum and minimum of calcium signal during defined time window: RFU=Fmax−Fmin. • ii. Calculate the percentage activation using following equation:\n[formula] • Iii. Calculate EC50 by fitting % activation against log of compound concentrations with Hill equation using XLfit.\nExemplary compounds of Formula I were evaluated functionally using FLIPR assay for their effect on h5-HT2A receptor under agonist mode."}, "[2]": {"assay": "Liver microsomes stability, human", "procedure": "(§1) The objective of this study was to estimate in vitro metabolic stability of representative compounds of the application in pooled human and male mouse liver microsomes. The concentrations of parent compounds in reaction systems were evaluated by LC-MS/MS for estimating the stability in pooled human and male mouse liver microsomes. The in vitro intrinsic clearances of test compounds were determined as well.\n(§2) A master solution in the “Incubation Plate” containing phosphate buffer, ultra-pure H2O, MgCl2 solution and liver microsomes was made according to Table 3. The mixture was pre-warmed at 37° C. water bath for 5 minutes.\n(§3) 40 μL of 10 mM NADPH solution was added to each well. The final concentration of NADPH was 1 mM. The negative control samples were prepared by replacing NADPH with 40 μL of ultra-pure H2O. Samples were prepared in duplicate. Negative controls were prepared in singlet.\n(§4) The reaction was started with the addition of 4 μL of 200 μM test compounds or control compounds to each master solution to get the final concentration of 2 μM. This study was performed in duplicate.\n(§5) Aliquots of 50 μL were taken from the reaction solution at 0, 15, 30, 45 and 60 minutes. The reaction solutions were stopped by the addition of 4 volumes of cold methanol with IS (100 nM alprazolam, 200 nM imipramine, 200 nM labetalol and 2 μM ketoprofen). Samples were centrifuged at 3,220 g for 40 minutes. Aliquot of 90 μL of the supernatant was mixed with 90 μL of ultra-pure H2O and then was used for LC-MS/MS analysis.\n(§6) LC/MS analysis was performed for all samples from this study using a Shimadzu liquid chromatograph separation system equipped with degasser DGU-20A5R; solvent delivery unit LC-30AD; system controller SIL-30AC; column oven CTO-30A; CTC Analytics HTC PAL System. Mass spectrometric analysis was performed using a Triple Quad™ 5500 instrument.\n(§7) All calculations were carried out using Microsoft Excel. Peak areas were determined from extracted ion chromatograms. The slope value, k, was determined by linear regression of the natural logarithm of the remaining percentage of the parent drug vs. incubation time curve.\n(§8) The in vitro half-life (in vitro t1/2) was determined from the slope value:\n(§9) Conversion of the in vitro t1/2 (min) into the in vitro intrinsic clearance (in vitro CLint, in μL/min/mg proteins) was done using the following equation (mean of duplicate determinations): […]"}, "[3]": {"assay": "Liver microsomes stability, mouse", "procedure": "as §1, §2, §3, §4, §5, §6, §7, §8, §9"}, "[4]": {"assay": "Liver microsomes stability, rat", "settings": "rat"}}, "note": "pEC50: −log10 of the molar value."}
{"smiles": "CN(C)CCc1c[nH]c2cccc(OP(=O)(O)O)c12", "note": "[psilocybin]", "values": [{"measurement": "head twitches (mean)", "setting": "Male, C57BL/6J mice; 0.1 mg/kg SC", "result": 4.8}, {"measurement": "head twitches (mean)", "setting": "Male, C57BL/6J mice; 0.3 mg/kg SC", "result": 6.3}, {"measurement": "head twitches (mean)", "setting": "Male, C57BL/6J mice; 1 mg/kg SC", "result": 16.3}, {"measurement": "head twitches (mean)", "setting": "Male, C57BL/6J mice; 3 mg/kg SC", "result": 7.8}, {"measurement": "head twitches (mean)", "setting": "Male, C57BL/6J mice; 10 mg/kg SC", "result": 5.5}, {"measurement": "dose at which head twitch response reached a peak", "setting": "Male, C57BL/6J mice; SC, 0.1-10 mg/kg tested", "result": 1, "unit": "mg/kg"}, {"measurement": "other behavioural signs (locomotion, core body temperature, 5-HT syndrome) in words", "setting": "Male, C57BL/6J mice; SC", "result": "decreased locomotion and decreased core body temperature"}]}
{"smiles": "COc1cc2c(cc1OC)C(CCN(C)C)CN2", "note": "(stereo not drawn) [Compound I-33, 2-(5,6-Dimethoxyindolin-3-yl)-N,N-dimethylethan-1-amine]", "values": [{"measurement": "RFU@10 μM", "setting": "[1]", "result": 286}]}
{"smiles": "COc1ccc2c(c1)C(CCN(C)C)CN2C", "note": "(stereo not drawn) [Compound I-3, 2-(5-Methoxy-1-methylindolin-3-yl)-N,N-dimethylethan-1-amine]", "values": [{"measurement": "RFU@10 μM", "setting": "[1]", "result": 1014}, {"measurement": "pEC50", "setting": "[1]", "result": 6.39}]}
{"smiles": "CN(C)CCC1CNc2ccc(F)cc21", "note": "(stereo not drawn) [Compound I-2, 2-(5-Fluoroindolin-3-yl)-N,N-dimethylethan-1-amine]", "values": [{"measurement": "RFU@10 μM", "setting": "[1]", "result": 622}, {"measurement": "pEC50", "setting": "[1]", "result": 6.97}, {"measurement": "Predicted hepatic CL", "setting": "[2]; human liver microsomes", "result": 1.73, "unit": "mL/min/kg"}, {"measurement": "Remaining Percentage", "setting": "[2]; human, With NADPH, 0 min", "result": 100.00, "unit": "%"}, {"measurement": "Remaining Percentage", "setting": "[2]; human, With NADPH, 30 min", "result": 111.62, "unit": "%"}, {"measurement": "Remaining Percentage", "setting": "[2]; human, With NADPH, 60 min", "result": 95.59, "unit": "%"}, {"measurement": "Remaining Percentage", "setting": "[2]; human, Without NADPH, 0 min", "result": 100.00, "unit": "%"}, {"measurement": "Remaining Percentage", "setting": "[2]; human, Without NADPH, 30 min", "result": 115.22, "unit": "%"}, {"measurement": "Remaining Percentage", "setting": "[2]; human, Without NADPH, 60 min", "result": 108.70, "unit": "%"}, {"measurement": "CLint scaled at 2 μM", "setting": "[2]; human, pooled liver microsomes", "result": 1.89, "unit": "mL/min/kg"}, {"measurement": "half-life at 2 μM", "setting": "[2]; human, pooled liver microsomes", "result": 921, "unit": "min"}, {"measurement": "microsomal CLint at 2 μM", "setting": "[2]; human, pooled liver microsomes", "result": 1.5, "unit": "µL/min/mg"}, {"measurement": "CLint scaled at 2 μM", "setting": "[3]; male, mouse, microsomes", "result": 163, "unit": "mL/min/kg"}, {"measurement": "half-life at 2 μM", "setting": "[3]; male, mouse, microsomes", "result": 37.2, "unit": "min"}, {"measurement": "microsomal CLint at 2 μM", "setting": "[3]; male, mouse, microsomes", "result": 37.3, "unit": "µL/min/mg"}, {"measurement": "Predicted hepatic CL", "setting": "[3]; mouse liver microsomes", "result": 57.99, "unit": "mL/min/kg"}, {"measurement": "Remaining Percentage", "setting": "[3]; mouse, With NADPH, 0 min", "result": 100.00, "unit": "%"}, {"measurement": "Remaining Percentage", "setting": "[3]; mouse, With NADPH, 30 min", "result": 56.32, "unit": "%"}, {"measurement": "Remaining Percentage", "setting": "[3]; mouse, With NADPH, 60 min", "result": 32.69, "unit": "%"}, {"measurement": "Remaining Percentage", "setting": "[3]; mouse, Without NADPH, 0 min", "result": 100.00, "unit": "%"}, {"measurement": "Remaining Percentage", "setting": "[3]; mouse, Without NADPH, 30 min", "result": 108.70, "unit": "%"}, {"measurement": "Remaining Percentage", "setting": "[3]; mouse, Without NADPH, 60 min", "result": 97.83, "unit": "%"}, {"measurement": "Remaining Percentage", "setting": "[4]; With NADPH, 0 min", "result": 100.00, "unit": "%"}, {"measurement": "Remaining Percentage", "setting": "[4]; With NADPH, 30 min", "result": 14.82, "unit": "%"}, {"measurement": "Remaining Percentage", "setting": "[4]; With NADPH, 60 min", "result": 3.66, "unit": "%"}, {"measurement": "Remaining Percentage", "setting": "[4]; Without NADPH, 0 min", "result": 100.00, "unit": "%"}, {"measurement": "Remaining Percentage", "setting": "[4]; Without NADPH, 30 min", "result": 106.67, "unit": "%"}, {"measurement": "Remaining Percentage", "setting": "[4]; Without NADPH, 60 min", "result": 104.17, "unit": "%"}, {"measurement": "CLint scaled at 2 μM", "setting": "[4]; liver microsomes", "result": 198, "unit": "mL/min/kg"}, {"measurement": "Predicted hepatic CL", "setting": "[4]; liver microsomes", "result": 43.15, "unit": "mL/min/kg"}, {"measurement": "half-life at 2 μM", "setting": "[4]; liver microsomes", "result": 12.6, "unit": "min"}, {"measurement": "microsomal CLint at 2 μM", "setting": "[4]; liver microsomes", "result": 110, "unit": "µL/min/mg"}]}
{"smiles": "COc1ccc2[nH]cc(CCN(C)C)c2c1", "note": "[5-MeO DMT]", "values": [{"measurement": "head twitches (mean)", "setting": "Male, C57BL/6J mice; 1 mg/kg SC", "result": 3.0}, {"measurement": "head twitches (mean)", "setting": "Male, C57BL/6J mice; 3 mg/kg SC", "result": 4.2}, {"measurement": "head twitches (mean)", "setting": "Male, C57BL/6J mice; 10 mg/kg SC", "result": 7.8}, {"measurement": "head twitches (mean)", "setting": "Male, C57BL/6J mice; 30 mg/kg SC", "result": 12.3}, {"measurement": "head twitch response (in words)", "setting": "Male, C57BL/6J mice; SC, dose range as in the sentence", "result": "monotonic increase in head twitches"}, {"measurement": "other behavioural signs (locomotion, core body temperature, 5-HT syndrome) in words", "setting": "Male, C57BL/6J mice; SC", "result": "behavioural signs associated with 5-HT syndrome"}]}
